# Experimental data reported in patent US20120308537A1, “Use Of Collagen Type VII For Maintaining And Re-Inducing Osteogenic Abilities Of Mesenchymal Stem Cells” (UNIVERSITY OF SOUTHERN CALIFORNIA, priority 2009, published 2012).
# Key:
# [1] = tested on: p-ERK (Ras-ERK signaling pathway); assay: Immunoblot analysis of ERK phosphorylation in MSCs under osteogenic conditions; assay type: cell-based, human
# Description: (§1) In this experiment, cells were serum starved for 48 hours and then stimulated with osteogenic medium in the absence or presence of 1.0 μg/ml C7. Cellular extracts were prepared at the times indicated and then subjected to immunoblot analysis with antibodies shown above. Total ERK and paxillin are included to indicate equal protein loading.
# In this experiment, cells were pretreated with the respective inhibitor for 1 hour before addition of 1.0 μg/ml C7. Regular ERK is included as a control for equal protein loading.
# [2] = tested on: ALP, Runx2, BSP, OCN mRNA in MSCs; assay: Real-Time PCR analysis of osteogenic-specific gene expression in MSCs; assay type: cell-based, human
# Description: In this experiment, MSCs were cultured in 6-well plates in growth medium until they reached confluence. Then, they were switched to osteogenic medium. Respective wells were treated with 1.0 μg/ml C7 until the indicated harvest days. Equal amounts of RNA were reverse transcribed and the mRNA levels of the indicated genes were analyzed using SYBR green master mix and primers for alkaline phosphotase (ALP), Runx2, bone sialoprotein (BSP), and osteocalcin (OCN). Data were normalized to house keeping gene GAPDH and expressed as fold-changes relative to 7D untreated cells. Results represent the mean+/−standard deviation of duplicate experiments with PCR performed in triplicates.
# (§2) FIG. 9A is a scanned image of Alizarin staining (left) and its quantification (right). Here the MSCs were treated with 1.0 μg/ml C7 or 1.0 μg/ml C7 and 15 μM U0126 in the presence of an osteogenic medium for 21 days. In FIG. 9B, MSCs were cultured as in FIG. 9A. RNAs were collected after 14 days and subjected to RT-PCR analysis for early osteogenic gene markers. Results for staining represent mean values+/−standard deviation from experiments performed in quadruplicate. RT-PCR results represented the mean+/−standard deviation of duplicate experiments with PCR performed in triplicates. The […] inhibitor abolished C7-induced calcium deposition and expression of early osteogenic gene markers.
# human MSCs [3] = assay: Alizarin red (AR) staining of MSCs in osteogenic medium (calcium accumulation and mineralization); assay type: cell-based
# Description: Alizarin red (AR) staining is normally used to determine the calcium accumulation and mineralization that are associated with bone formation. Cells in the tissue culture dishes labeled C7 were incubated with osteogenic induction medium containing 1.0 μg/ml of C7. Cells in the tissue culture dishes labelled OST were incubated with osteogenic induction medium alone (controls).
# FIG. 3A is the scanned image of Alizarin red staining (top) and its quantification (bottom).
# FIG. 3B is the scanned image of Alizarin red staining (top) and its quantification (bottom). […] The results represent mean values+/−standard deviation from experiments performed in triplicates. Note that MSCs only need to be exposed to 0.6 μg/ml of C7 during days 8-12 to attain optimal osteogenic induction.
# For these experiments, plated MSCs were plated at 3×10^5/per well on 6-well plates in MSC growth medium containing α-MEM containing 16.7% Premium FBS (Atlanta Biologicals Cat# S11550), and 2 mM L-Glutamine. After the cells reached 70% confluency, the medium was changed to osteogenic induction medium with or without 0.6 μg/ml C7 added at the time period indicated above.
# Here the MSCs were treated with 4 μg/ml of NC1 for 21 days in an osteogenic medium. Results represent mean values+/−standard deviation from experiments performed in triplicates.
# as §2
# [4] = tested on: ectopic osteogenesis induction; assay: ALP assay of ectopic osteogenesis induction, intramuscular implantation in rat; assay type: in vivo; details: 4 weeks
# Description: (§3) The negative control was carrier only, which consisted of collagen sponge (bovine). The samples were administered to rat via intramuscular implantation on ectopic sites. The experiment lasted for 4 weeks. Two different preparations (C7 and C7′) were tested. The test dosages were: 10, 20 and 40 μg. The results were analyzed by alkaline phosphotase assay (ALP) and histology for bone formation.
# MSCs = assay: Inducing and maintaining the osteogenicity of MSCs by C7 fragments (general statement); assay type: cell-based; details: fragments of C7 containing the CMP subdomain
# [5] = tested on: ectopic osteogenesis induction; assay: Histology analysis of ectopic osteogenesis induction (bone formation), intramuscular implantation in rat; assay type: in vivo; details: 4 weeks
# Description: as §3
# late passage MSCs = assay: Alizarin red staining of late passage MSCs (exogenous C7 or lentiviral C7 over-expression); assay type: cell-based, human
# Description: FIG. 5A is the scanned image of Alizarin red staining (top) and its quantification (bottom). Late passage MSCs (passage 8) were treated with 1.0 μg/ml of C7 in the presence of an osteogenic medium for 21 days.
# FIG. 5B is the scanned image of Alizarin red staining (top) and its quantification (bottom). Late passage MSCs infected with lentiviral vectors expressing either green fluorescence protein (GFP) or C7 were subjected to osteogenic medium for 21 days. Results represent mean values+/−standard deviation from experiments performed in triplicates.
# For these experiments, MSCs from passage 3 were infected with lentiviral vectors expressing either GFP or C7 and cultured for an additional 7 passages. Then infected MSCs (passage 10) were plated at 6 well-plates and then subjected to osteogenic induction medium.
# p-P38 = assay: Immunoblot analysis of P38 phosphorylation in MSCs under osteogenic conditions; assay type: cell-based, human; details: 1.0 μg/ml C7; serum starved 48 hours
# Description: as §1
# human MSCs [6] = assay: Alkaline phosphotase (ALP) staining of MSCs in osteogenic medium; assay type: cell-based; details: 1.0 μg/ml C7, 14 days in osteogenic medium, vs osteogenic medium alone
# Description: ALP measures the expression of a key marker enzyme that is needed for bone formation. The tissue culture dishes labeled C7 were treated with 1.0 μg/ml C7 whereas dishes label OST were the controls. The cells were incubated in an osteogenic medium for 14 days.
# [7] = 1.0 μg/ml C7 and 15 μM U0126, 14 days
# [8] = 1.0 μg/ml C7, normalized to GAPDH
molecule,measurement,setting,value
"N#CC(=C(/N)Sc1ccccc1N)/C(C#N)=C(\N)Sc1ccccc1N [U0126, reference compound]",effect of inhibitor on C7-mediated induction of p-ERK,"[1]; pretreated with inhibitor 1 hour before 1.0 μg/ml C7, proteins collected after 1 hour",Abrogated
same,mRNA expression of ALP in C7-treated MSCs,[2]; [7],reduced
same,mRNA expression of BSP in C7-treated MSCs,[2]; [7],reduced
same,AR staining of C7-treated MSCs (C7-mediated osteogenic induction),"human MSCs [3]; 1.0 μg/ml C7 and 15 μM U0126, 21 days",reduced
type VII collagen [C7],production of p-ERK,"[1]; 1.0 μg/ml C7, as early as 10 minutes, sustained up to 1 hour, serum starved 48 hours",increased
same,ALP,[4]; 10 ug C7 or C7′ + 1 ug BMP-2,0.257
same,ALP/Pro,[4]; 10 ug C7 or C7′ + 1 ug BMP-2,2.360
same,ALP/Pro,"[4]; 10 ug C7 or C7′, no BMP-2",0.517
same,ALP,"[4]; 10 ug C7 or C7′, no BMP-2, collagen sponge, intramuscular ectopic site",0.094
same,ALP,[4]; 20 ug C7 or C7′ + 1 ug BMP-2,0.384
same,ALP/Pro,[4]; 20 ug C7 or C7′ + 1 ug BMP-2,1.893
same,ALP,"[4]; 20 ug C7 or C7′, no BMP-2",0.094
same,ALP/Pro,"[4]; 20 ug C7 or C7′, no BMP-2",0.500
same,ALP,"[4]; 40 ug C7 or C7′, no BMP-2",0.092
same,ALP/Pro,"[4]; 40 ug C7 or C7′, no BMP-2",0.364
same,ALP mRNA expression (early osteogenic marker),[2]; [8],upregulates
same,BSP mRNA expression (early osteogenic marker),[2]; [8],upregulates
same,OCN mRNA expression (late osteogenic marker),[2]; [8],upregulates
same,Runx2 mRNA expression (early osteogenic marker),[2]; [8],upregulates
same,effectiveness in inducing and maintaining the osteogenicity of MSCs,MSCs,relatively effective
same,osteogenic potential of human MSCs as measured by Alizarin red activity,"human MSCs [3]; 1.0 μg/ml C7, 21 days in osteogenic medium, vs osteogenic medium alone",significantly enhances
same,concentration needed to attain optimal osteogenic induction,"human MSCs [3]; exposure during days 8-12 only, osteogenic medium 21 days",0.6 µg/mL
same,Bone score,[5]; 10 ug C7 or C7′ + 1 ug BMP-2,3
same,Bone score,"[5]; 10 ug C7 or C7′, no BMP-2",0
same,Bone score,[5]; 20 ug C7 or C7′ + 1 ug BMP-2,0
same,Bone score,"[5]; 20 ug C7 or C7′, no BMP-2",0
same,Bone score,"[5]; 40 ug C7 or C7′, no BMP-2",0
same,BMP-2-mediated bone induction (ALP assay and histology),"[5]; low dosage 10 μg with BMP-2, rat intramuscular implantation",significantly enhance
same,restoring osteogenic potential of late passage MSCs (Alizarin red),"late passage MSCs; exogenous addition, 1.0 μg/ml C7, passage 8, 21 days",capable of restoring
same,restoring osteogenic potential of late passage MSCs (Alizarin red),"late passage MSCs; over-expression by lentiviral vector vs GFP, passage 10, 21 days",capable of restoring
same,level of p-P38,p-P38,remained unchanged
same,osteogenic potential of human MSCs as measured by ALP activity,human MSCs [6],significantly enhances
